Laboratory results: article PMC3436903 (Chembiochem : a European journal of chemical biology, 2011)

Assay: pH-dependence of keto acid-lactol equilibrium by 1H-NMR in D2O
Assay type: physicochemical

Nc1ncnc2c1ncn2[C@@H]1O[C@H](CNS(=O)(=O)NC(=O)CCC(=O)c2ccccc2C(=O)O)[C@@H](O)[C@H]1O [Inhibitor 5]
pD range of rapid equilibration of keto acid and lactol forms (intermediate chemical shifts): 1.32–4.32 pD
pD at which the lactol form is observed (ketone α-protons at ≈2.45 ppm): 0.89 pD
pD at which the keto acid form is observed (ketone α-protons at ≈3.2 ppm): ≥ 5.70 pD
